US7704533B2, “Compositions and methods of inducing hair growth utilizing Continus coggygria” (J&J Consumer Companies, Inc., priority 2006, dated 2010)

How the values were obtained:
C3H mice = assay: Hair growth induction in C3H mice (mice entering anagen); format: in vivo
From the text: C3H female mice age 6-7 weeks of age were purchased from Taconic Farms (Germantown, N.Y.). Mice were housed in appropriately sized cages in an environmentally controlled room with a 12-hour light-12-hour dark photoperiod and supplied with food and water ad libitum. Animal care was based on the “Guide for the Care and Use of Laboratory Animals”, NIH Publication No. 85-23. Animals were acclimated for a week before study starts. Once all mice entered their prolonged telogen/resting phase (about 50-60 days long) of the hair cycle, they were clipped over the dorsal area about 1.5×5 cm (Wahl Clippers 8900 Series, Blade # 1086). Seven female mice per group were clipped while sedated with 2% induction and maintenance isoflurane and 0.5 L Oxygen. In addition to the 150 mg/ml Cotinus coggygria formulation, the treatment groups included a placebo, 5% Minoxidil as positive control and an untreated group to serve as control for natural hair growth initiation and to observe placebo effects. 200 μl of test materials were applied topically to the area daily, 5 days a week. Images were taken at the first signs of anagen/active growth phase and when needed based on visual observation. Skin samples were obtained for histological analysis at week 3 and a study log documenting day-to-day observations of mice entering anagen (grey skin, the first visual clue to a new hair growth) were recorded. Treatments continued for up to 6 weeks. […] C3H mice were treated as described in Example 3. In addition to the 150 mg/ml Cotinus coggygria formulation prepared as a concentrate via heat processing, a lyophilized Cotinus extract powder was prepared as described above, as well as lower (60 mg/ml, 90 mg/ml, 120 mg/ml) and higher concentrations (up to 210 mg/ml) of Cotinus coggygria extracts (Table III). The treatment groups included a placebo, 5% minoxidil as positive control and an untreated group to serve as control for natural hair growth initiation and to observe placebo effects. 200 ul of test materials were applied topically to the area daily, 5 days a week. Images were taken at the first signs of anagen/active growth phase and when needed based on visual observation. Skin samples were obtained for histological analysis and a study log documenting day-to-day observations of mice entering anagen (grey skin) were recorded. Treatments continued for up to 6 weeks. […] Moreover, a dose-dependent increase in dorsal hair coverage was observed visually and documented by images, and also confirmed by histological analysis. […] C3H female mice clipped over the dorsal area once they have entered their prolonged telogen phase (about 8 weeks long) were topically treated once daily for 6 weeks with 200 μl 150 mg/ml of Cotinus coggygria extract or with 5% Minoxidil or with the combination of both agents. […] C3H hair growth studies were performed as described in earlier examples, with the addition of formulation agents to the cotinus extract preparation.

[1] = tested on: postmenopausal women with androgenetic alopecia; settings: one-year trial; cited from earlier work

In the case of Nc1cc(N2CCCCC2)nc(N)[n+]1[O-] [5% Minoxidil, Minoxidil], the “% of mice entering anagen” value (C3H mice; Table II, day 9 of study, listed as Ave 5% Minoxidil) is reported as 7%, the “% of mice entering anagen” value (C3H mice; Table II, day 9 of study, listed as Best 5% Minoxidil) is reported as 20% and the “% of mice entering anagen” value (C3H mice; Table II, day 10 of study, listed as Ave 5% Minoxidil) is reported as 18%. For the same molecule, the “% of mice entering anagen” value (C3H mice; Table II, day 10 of study, listed as Best 5% Minoxidil) was 40%, the “% of mice entering anagen” value (C3H mice; Table II, day 13 of study, listed as Ave 5% Minoxidil) was 18% and the “% of mice entering anagen” value (C3H mice; Table II, day 13 of study, listed as Best 5% Minoxidil) was 40%. The “% of mice entering anagen” value (C3H mice; Table II, day 14 of study, listed as Ave 5% Minoxidil) was 31%, the “% of mice entering anagen” value (C3H mice; Table II, day 14 of study, listed as Best 5% Minoxidil) was 80% and the “% of mice entering anagen” value (C3H mice; Table II, day 16 of study, listed as Ave 5% Minoxidil) was 31%. For the same molecule, the “% of mice entering anagen” value (C3H mice; Table II, day 16 of study, listed as Best 5% Minoxidil) was 80%, the “% of mice entering anagen” value (C3H mice; Table II, day 20 of study, listed as Ave 5% Minoxidil) was 32% and the “% of mice entering anagen” value (C3H mice; Table II, day 20 of study, listed as Best 5% Minoxidil) was 80%. The “% of mice entering anagen” value (C3H mice; Table II, day 22 of study, listed as Ave 5% Minoxidil) was 41%, the “% of mice entering anagen” value (C3H mice; Table II, day 22 of study, listed as Best 5% Minoxidil) was 80% and the “% of mice entering anagen” value (C3H mice; Table II, day 23 of study, listed as Ave 5% Minoxidil) was 38%. For the same molecule, the “% of mice entering anagen” value (C3H mice; Table II, day 23 of study, listed as Best 5% Minoxidil) was 80%, the “% of mice entering anagen” value (C3H mice; Table II, day 24 of study, listed as Ave 5% Minoxidil) was 36% and the “% of mice entering anagen” value (C3H mice; Table II, day 24 of study, listed as Best 5% Minoxidil) was 75%. For the same molecule, the “% of mice entering anagen” value (C3H mice; Table II, day 27 of study, listed as Ave 5% Minoxidil) was 36%, the “% of mice entering anagen” value (C3H mice; Table II, day 27 of study, listed as Best 5% Minoxidil) was 75% and the “% of mice entering anagen” value (C3H mice; Table II, day 29 of study, listed as Ave 5% Minoxidil) was 36%. The “% of mice entering anagen” value (C3H mice; Table II, day 29 of study, listed as Best 5% Minoxidil) was 100%, the “% of mice entering anagen” value (C3H mice; Table II, day 31 of study, listed as Ave 5% Minoxidil) was 45% and the “% of mice entering anagen” value (C3H mice; Table II, day 31 of study, listed as Best 5% Minoxidil) was 100%. The “% of mice entering anagen” value (C3H mice; Table II, day 35 of study, listed as Ave 5% Minoxidil) was 48%, the “% of mice entering anagen” value (C3H mice; Table II, day 35 of study, listed as Best 5% Minoxidil) was 100% and the “% of mice entering anagen” value (C3H mice; Table II, day 42 of study, listed as Ave 5% Minoxidil) was 63%. The “% of mice entering anagen” value (C3H mice; Table II, day 42 of study, listed as Best 5% Minoxidil) was 100%, the “% of mice entering anagen” value (C3H mice; Table II, day 43 of study, listed as Ave 5% Minoxidil) was 87% and the “% of mice entering anagen” value (C3H mice; Table II, day 43 of study, listed as Best 5% Minoxidil) was 100%. The “% of mice entering anagen” value (C3H mice; Table II, day 44 of study, listed as Ave 5% Minoxidil) was 93%, the “% of mice entering anagen” value (C3H mice; Table II, day 44 of study, listed as Best 5% Minoxidil) was 100% and the “% of mice entering anagen” value (C3H mice; Table III, day 8 of study) was 0%. The “% of mice entering anagen” value (C3H mice; Table III, day 9 of study) was 0%, the “% of mice entering anagen” value (C3H mice; Table III, day 10 of study) was 14% and the “% of mice entering anagen” value (C3H mice; Table III, day 11 of study) was 43%. The “% of mice entering anagen” value (C3H mice; Table III, day 14 of study) was 33%, the “% of mice entering anagen” value (C3H mice; Table III, day 15 of study) was 33% and the “% of mice entering anagen” value (C3H mice; Table III, day 16 of study) was 33%. For the same molecule, the “% of mice entering anagen” value (C3H mice; Table III, day 17 of study) was 20%, the “% of mice entering anagen” value (C3H mice; Table III, day 18 of study) was 40% and the “% of mice entering anagen” value (C3H mice; Table III, day 21 of study) was 80%. For the same molecule, the “% of mice entering anagen” value (C3H mice; Table III, day 22 of study) was 80%, the “% of mice entering anagen” value (C3H mice; Table III, day 23 of study) was 80% and the “% of mice entering anagen” value (C3H mice; Table III, day 24 of study) was 80%. The “% of mice entering anagen” value (C3H mice; Table III, day 25 of study) was 80%, the “% of mice entering anagen” value (C3H mice; Table III, day 28 of study) was 80% and the “% of mice entering anagen” value (C3H mice; Table III, day 29 of study) was 80%.
For CC(C)(C)NC(=O)[C@H]1CC[C@H]2[C@@H]3CC[C@H]4NC(=O)C=C[C@]4(C)[C@H]3CC[C@]12C [Finasteride], the scalp hair growth [1] is given as “did not improve scalp hair growth”.
